Patent US20060222628A1, “Gallium complexes of 3-hydroxy-4-pyrones to treat infection by intracellular prokaryotes and DNA viruses” (priority 1999, published 2006)

Tests used:
Varicella-Zoster (VZV) = assay: Clinical evaluation for Varicella-Zoster (VZV) infection and recurrences; type: in vivo, human
Procedure: Gallium maltolate is evaluated clinically for efficacy in treating Varicella-Zoster (VZV) infection in HIV negative individuals who show no signs of immune dysfunction of any type. Patients with VZV infection are treated once per day with gelatin capsules containing gallium maltolate. The population of patients is divided into subpopulation with recurrent VZV (shingles) and acute VZV infections (chickenpox) respectively. These different subpopulations are divided randomly and blindly into two approximately equal groups with four approximately equal subgroups that receive either 0 (placebo), 250, 500, or 750 mg/day gallium maltolate for about six months. The first group of each subpopulation receive the gallium maltolate dose together with 800 mg acyclovir five times per day. The second group of each subpopulation receive the gallium maltolate dose together with 500 mg ganciclovir twice per day. Patients are medically monitored for resolution reoccurrences of latent VZV infection, or medical symptoms of acute VZV infection throughout the study, with the monitoring including in situ hybridization of skin lesions for VZV DNA. In addition for the acute VZV infected group, blood serum samples are obtained from the patients at days 1-5 and are assayed for VZV particles by routine methods and for VZV DNA (viral load assay) using PCR.

EBV and KSV = assay: Clinical evaluation for prevention of EBV or KSV neoplasms in HIV patients: neoplasia; type: in vivo, human
Source text: (§1) Both EBV and KSV cause neoplasms, with both causing lymphomas and KSV ([…]) along with HHV-7, possibly in concert with HHV-6 associated with the pathogenesis of Kaposi Sarcoma. Most humans carry all these viruses. A HIV population could be studied without determining whether any of the patients are seropositive or culturable for these pathogens, or preferably a group of HIV patients who are seropositive or culture positive for both EBV and KSV can be identified. Applying the methods of Example 12 with additional guidance from Schneider et al. (2000), supra, yields a protocol for evaluating the contribution of the gallium compounds of the invention in prevention of opportunistic neoplasms caused by the herpes viruses with combination antiviral therapy.
Using essentially the same protocol as Example 12, but with an HIV infected patient population that is seropositive or culture positive for both EBV and KSV and substituting the specific assays such as PCR, serodetection for the EBV and KSV viruses, the role of gallium as a combination agent in preventing the neoplasms caused by members of the herpesvirus family in HIV disease can be evaluated. The subpopulations are divided according to CD4 counts as in Example 12. Each subpopulation's first group is treated in addition to the foscarnet with interferon-alpha. Each subpopulation's second group is treated in addition to the ganciclovir with the same doses of foscarnet and interferon-alpha as the first group. The dosages of the foscarnet and are as in Example 12, as are the dosages for the gallium maltolate for each groups four subgroups. Thus within each subpopulation, gallium plus foscarnet plus traditional HAART is compared to gallium plus foscarnet plus traditional HAART plus ganciclovir. An all oral regimen would be preferable but success would be unlikely. The dosage level for the interferon-alpha used is that used for treating Kaposi Sarcoma (20 million IU every day by injection), a dose that may require adjustment for tolerance in some patients. […]

transferrin (Tf) = molecular target: T1, transferrin (Tf) (Homo sapiens, UniProt P02787); conditions: oral, versus intravenous gallium nitrate; cited from earlier work
T1 construct: host or cells: circulating (blood plasma) transferrin of the dosed subject
T1 sequence (P02787 20-698, species assumed): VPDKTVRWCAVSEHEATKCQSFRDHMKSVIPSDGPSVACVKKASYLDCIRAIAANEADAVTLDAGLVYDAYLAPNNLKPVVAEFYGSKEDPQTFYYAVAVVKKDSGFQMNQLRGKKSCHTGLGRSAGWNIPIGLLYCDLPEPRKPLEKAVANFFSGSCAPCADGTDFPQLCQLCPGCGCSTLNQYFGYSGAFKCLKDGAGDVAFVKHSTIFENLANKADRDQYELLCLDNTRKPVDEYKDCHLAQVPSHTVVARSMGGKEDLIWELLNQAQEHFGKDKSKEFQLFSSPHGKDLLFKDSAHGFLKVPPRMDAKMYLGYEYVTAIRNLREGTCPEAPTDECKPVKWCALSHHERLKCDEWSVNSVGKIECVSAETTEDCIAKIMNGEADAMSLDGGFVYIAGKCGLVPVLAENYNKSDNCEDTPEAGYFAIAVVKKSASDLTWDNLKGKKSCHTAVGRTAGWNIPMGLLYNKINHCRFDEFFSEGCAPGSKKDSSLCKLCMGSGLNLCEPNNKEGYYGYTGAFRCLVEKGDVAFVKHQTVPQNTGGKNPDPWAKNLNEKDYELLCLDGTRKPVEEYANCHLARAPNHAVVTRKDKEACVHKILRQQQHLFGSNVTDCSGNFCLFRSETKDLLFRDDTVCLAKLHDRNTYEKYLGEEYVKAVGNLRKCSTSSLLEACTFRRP

HIV = assay: Clinical evaluation for prevention of EBV or KSV neoplasms in HIV patients: HIV; type: in vivo; conditions: neoplasm prevention study; MacSynergy II
Source text: as §1
Using essentially the same protocol as Example 12, but with an HIV infected patient population that is seropositive or culture positive for both EBV and KSV and substituting the specific assays such as PCR, serodetection for the EBV and KSV viruses, the role of gallium as a combination agent in preventing the neoplasms caused by members of the herpesvirus family in HIV disease can be evaluated. The subpopulations are divided according to CD4 counts as in Example 12. Each subpopulation's first group is treated in addition to the foscarnet with interferon-alpha. […]

[1] = Stability of the 3:1 complex in aqueous solutions at various pH by ultraviolet spectroscopy; type: physicochemical; conditions: 1.0×10^−2 M in water, 25° C.
Procedure: The pH was adjusted by adding either 1N HCl or 1N Na2CO3. The stability of the complex was determined using ultraviolet spectroscopy over the region 200-450 nm at 25° C. Several absorption peaks are observed in this range, including those at about 212-217 nm, 248 nm, 273 nm, 318 nm, and 385 nm. An isobesic point occurs over much of the pH range at about 290 nm. In the very dilute solutions (2.5×10^−6 M), the neutral 3:1 complex appears to be stable from about pH 4.5 to 9.5. For the less dilute solutions (1.0×10^−2 M), the determination was more difficult due to the very high absorbance.

[2] = in vivo
Source text: Gallium is absorbed very poorly when orally administered as salts such as the chloride or nitrate (Collery et al. (1989), “Clinical pharmacology of gallium chloride after oral administration in lung cancer patients,” Anticancer Res. 9:353-356; Ho et al. […] J.

[3] = type: physicochemical
Procedure: The material forms white to pale beige monoclinic crystals with unit cell parameters of about a=7.899(1)Å, b=8.765(1)Å, c=31.626(2)Å, beta=103.253(7) degrees, V=2131 Å^3, based on powder x-ray diffraction analysis. The solubility of this compound is measured as about 5 millimolar in distilled deionized water at 23° C. Crystallization from other solvents or under other conditions may produce other crystal structures. Under some conditions, water or other solvents may also be incorporated into the structure. […] About 5.5 grams of powdered anhydrous sodium carbonate are added, and stirring continues for additional 12 minutes. […] The remaining crystalline solid is the 3:1 maltol gallium composition. […] The solubility of this composition is measured as about 24 millimolar in distilled deionized water at 23° C.

Epstein-Barr Virus (EBV) = assay: Clinical evaluation for Epstein-Barr virus (EBV) infection; type: in vivo, human
Procedure: Some of the methods employed in the clinical studies discussed in the following references are used in the evaluation: Schneider et al. (2000), “Regression of Epstein-Barr virus-associated lymphoproliferative disorders in patients with acquired immunodeficiency syndrome during therapy with foscarnet,” Ann. Hematol. 79(4):214-6. Patients with EBV infection are treated once per day with gelatin capsules containing gallium maltolate. The patients are divided randomly and blindly into two approximately equal groups with four approximately equal subgroups that receive either 0 (placebo), 250, 500, or 750 mg/day gallium maltolate for about six months. The first group receive the gallium maltolate dose together with 500 mg ganciclovir twice per day. The second group receive the gallium maltolate dose together with 5500 mg foscarnet, IV infusion over 1.5-2 hr., twice per day. Patients are medically monitored for resolution of EBV infection, with histopathologic examination of hematologic smears to assess characteristic cells an lymphocyte levels. In addition blood serum samples are obtained from the patients at days 1, 3, 7, 10, 14, 17, 21, 24 and 28 and are assayed for EBV particles by routine methods and for EBV DNA (viral load assay) using PCR.

## Cc1occc(=O)c1[O-].Cc1occc(=O)c1[O-].Cc1occc(=O)c1[O-].[Ga+3] [gallium maltolate, tris(3-hydroxy-2-methyl-4H-pyran-4-onato)gallium]
Varicella-Zoster (VZV); HIV negative patients, 250-750 mg/day oral with acyclovir or ganciclovir
  Efficacy in treating VZV infection: effective for treating VZV infection, including recurrent sores as well as more serious systemic disease
Varicella-Zoster (VZV); VZV
  Efficacy of combination with acyclovir or ganciclovir versus single agents: more effective than either agent alone
Varicella-Zoster (VZV); VZV, MacSynergy II
  Synergy with nucleoside analogs: synergy of gallium with both nucleoside analogs is also demonstrated
EBV and KSV; HIV infected patients on HAART, with foscarnet, interferon-alpha, ganciclovir
  Efficacy in preventing herpesvirus neoplasia in combination: effective in combination with foscarnet, interferon and ganciclovir
EBV and KSV; combined with foscarnet, ganciclovir and interferon, high CD4+ group
  Prevention of opportunistic herpesvirus associated neoplasms: producing the best results
EBV and KSV; with foscarnet, interferon and ganciclovir
  Synergy in preventing herpesvirus neoplasia: synergistic with all
Transferrin (Tf)
  Tf binding of absorbed gallium and tissue distribution: higher Tf binding of absorbed gallium and therefore better tissue distribution than intravenous gallium nitrate
HIV
  Synergy with the HAART regime on HIV infection: synergistic with the HAART regime in their effects upon the HIV infection
[1]
  Stability region (pH): very similar to that of the highly dilute solution, possibly slightly wider
[2]
  Oral gallium absorption relative to gallium salts: roughly ten times higher than from gallium salts
[3]
  Solubility: about 24 millimolar
Epstein-Barr Virus (EBV); EBV
  Efficacy of combination with ganciclovir or foscarnet versus single agents: more effective than either agent alone
Epstein-Barr Virus (EBV); EBV, MacSynergy II
  Synergy with nucleoside analogs: synergy of gallium with both nucleoside analogs is also demonstrated
Epstein-Barr Virus (EBV); HIV negative patients, 250-750 mg/day oral with ganciclovir or foscarnet
  Efficacy in treating EBV infection: effective for treating EBV infection, including recurrent sores as well as more serious systemic disease
